Measured values: patent US10940188B2, “Compounds and methods for treatment and prevention of Flavivirus infection” (priority 2016, dated 2021)

Experiments:
ZIKV in human astrocytes = assay: ZIKV infection of human astrocytes (ZIKVE immunostaining, NS1 Western blot/ELISA); type: cell-based, Zika virus; details: PRVABC59
Procedure: (§1) FIGS. 4A-1, 4A-2, 4B-1, 4B-2, 4B-3, 4C-1, 4C-2, 4D-1, and 4D-2. […] Cells were fixed 24 hours post infection and stained for ZIKVE (green) and DAPI (blue). Scale bar: 50 μm. Also shown is the quantification of ZIKV-infected astrocytes with multiple compound concentrations (FIG. 4A-2). Values represent mean±s.d. (n=6; ***P<0.001; One-way ANOVA). Shown in FIG. 4B-3 is virus production from compound-treated iPSC-derived human astrocytes (as in FIG. 2F) (n=3 cultures). Data represent mean±s.d. […] Shown are sample images and quantification (FIGS. 4B-1 and 4B-2). Values represent mean±s.d. (n=2; ***P<0.01; One-way ANOVA). Synergistic effect of Emricasan/PHA-690509 combination on improving cell viability in ZIKV infected astrocytes. Note that Emricasan and PHA-690509 inhibit the increased caspase-3 activity in a concentration-dependent manner in human astrocytes infected with FSS13025-ZIKV or MR766 ZIKV, and improve cell viability as measured by ATP production (FIGS. 4C-1, 4C-2, 4D-1, and 4D-2). Values represent mean±s.d. […]
FIGS. 8A-8E. […] Cell lysates were harvested 24 hours post infection and analyzed for ZIKV-NS1 and GAPDH protein levels by western blot. Shown are representative Western blot images (FIG. 8A) and quantification (FIG. 8B). […] Shown in FIG. 8D are representative images of immunostaining for ZIKVE (green) and DAPI (gray, left; Scale bar: 20 μm) and quantification (FIG. 8E). […]

ZIKV PRVABC59 in hNPCs = assay: ZIKV infection of hNPCs (NS1 Western blot); type: cell-based, Zika virus
Procedure: as §1, with “Synergistic effect of Emricasan/PHA-690509 combination on improving cell viability in ZIKV infected astrocytes.” left out, “4D-2).” for “4D-2). Values represent mean±s.d.”
SNB-19 cells, BJ astrocytes, or hNPCs were seeded in 12-well plates at approximately 3e5 cells/well. […] Cells and supernatant were harvested 24-48 hours post infection and analyzed by western blot or IFA. Western blot bands were quantified and IFA images counted using ImageJ (NIH, Bethesda, Md.).
SNB-19, BJ astrocyte, or NPCs were seeded in 12-well plates at approximately 3e5 cells/well. […] Cells and supernatant were harvested 24-48 hours post infection and analyzed by western blot or IFA. […]

SMILES	inhibition of ZIKV infection in astrocytes (ZIKV in human astrocytes)	inhibition of ZIKV infection in hNPCs (ZIKV PRVABC59 in hNPCs)
O=C(Nc1ccc([N+](=O)[O-])cc1Cl)c1cc(Cl)ccc1O [Niclosamide]	inhibited ZIKV^PR infection	inhibited ZIKV^PR infection
CC(=O)Nc1ccc([C@H](C)C(=O)Nc2ncc(C(C)C)s2)cc1 [PHA-690509]	inhibited ZIKV^PR infection	inhibited ZIKV^PR infection
